Results published in PubChem BioAssay AID248 (DTP/NCI, 2004).
“And” between values parts separate entries of the source, which are not always exact repeats. Equal entries are not always repeated. Toxic doses and inconclusive results are not listed. Rule as the data show it: active = T/C of 150% or more; inactive = T/C below 125%.

Tested on: L1210 leukemia ip in BDF1 mice, survival T/C
Experiment: NCI In Vivo Anticancer Drug Screen. Data for tumor model L1210 Leukemia (intraperitoneal) in B6D2F1 (BDF1) mice
Conditions: higher = longer survival
Procedure, shortened: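 Value reflects the ratio of survival in compound-treated mice to survival in vehicle-treated controls, with both groups carrying the same transplanted tumor.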

[1] = endpoint: mean survival time, dose: 100.0 mg/kg/injection, schedule: Q04DX003 (ip), vehicle: Klucel (hydroxypropylcellulose) (HPC)
[2] = endpoint: mean survival time, dose: 200.0 mg/kg/injection, schedule: Q04DX003 (ip), vehicle: Klucel (hydroxypropylcellulose) (HPC)
[3] = endpoint: mean survival time, dose: 400.0 mg/kg/injection, schedule: Q04DX003 (ip), vehicle: Klucel (hydroxypropylcellulose) (HPC)
[4] = endpoint: mean survival time, dose: 100.0 mg/kg/injection, schedule: Q01DX001 (ip), vehicle: saline
[5] = endpoint: mean survival time, dose: 200.0 mg/kg/injection, schedule: Q01DX001 (ip), vehicle: saline

Measured: T/C

O=[N+]([O-])/C=C\c1cc2c3c(c1)CCCN3CCC2
inactive: endpoint: mean survival time, dose: 3.13 mg/kg/injection, schedule: Q01DX001 (ip), vehicle: saline with Tween-80 95 % of control | endpoint: mean survival time, dose: 3.13 mg/kg/injection, schedule: Q04DX003 (ip), vehicle: saline with Tween-80 98 % of control | endpoint: mean survival time, dose: 6.25 mg/kg/injection, schedule: Q01DX001 (ip), vehicle: saline with Tween-80 94 % of control | endpoint: mean survival time, dose: 6.25 mg/kg/injection, schedule: Q04DX003 (ip), vehicle: saline with Tween-80 93 % of control | endpoint: mean survival time, dose: 12.5 mg/kg/injection, schedule: Q01DX001 (ip), vehicle: saline with Tween-80 95 % of control and 93 % of control | endpoint: mean survival time, dose: 12.5 mg/kg/injection, schedule: Q01DX009 (ip), vehicle: saline with Tween-80 100 % of control | endpoint: mean survival time, dose: 12.5 mg/kg/injection, schedule: Q04DX003 (ip), vehicle: saline with Tween-80 97 % of control | endpoint: mean survival time, dose: 25.0 mg/kg/injection, schedule: Q01DX001 (ip), vehicle: saline with Tween-80 93 % of control | endpoint: mean survival time, dose: 25.0 mg/kg/injection, schedule: Q01DX009 (ip), vehicle: saline with Tween-80 102 % of control | endpoint: mean survival time, dose: 50.0 mg/kg/injection, schedule: Q01DX001 (ip), vehicle: saline with Tween-80 97 % of control | endpoint: mean survival time, dose: 50.0 mg/kg/injection, schedule: Q01DX009 (ip), vehicle: saline with Tween-80 97 % of control

O=c1[nH]nc(-c2ccc(Br)cc2)s1
inactive: [1] 101 % of control | [2] 95 % of control | [3] 98 % of control

CCCCCC(/C=C/C1C=CC(=O)C1C/C=C/CCCC(=O)OC)OC(C)=O (centres undefined)
inactive: endpoint: mean survival time, dose: 100.0 mg/kg/injection, schedule: Q01DX009 (ip), vehicle: saline with Tween-80 100 % of control | endpoint: mean survival time, dose: 200.0 mg/kg/injection, schedule: Q01DX009 (ip), vehicle: saline with Tween-80 97 % of control

CCCc1c(CC)c(Cl)nc2ccccc12
inactive: [4] 105 % of control | [5] 103 % of control | endpoint: mean survival time, dose: 400.0 mg/kg/injection, schedule: Q01DX001 (ip), vehicle: saline 91 % of control

c1ccc(C2CC3c4ccccc4C2c2cccc[n+]23)nc1 (centres undefined)
inactive: endpoint: mean survival time, dose: 100.0 mg/kg/injection, schedule: Q01DX001 (ip), vehicle: Klucel (hydroxypropylcellulose) (HPC) 101 % of control | endpoint: mean survival time, dose: 200.0 mg/kg/injection, schedule: Q01DX001 (ip), vehicle: Klucel (hydroxypropylcellulose) (HPC) 107 % of control

CCC(=O)c1ccc(NC(C)=O)cc1
inactive: endpoint: mean survival time, dose: 100.0 mg/kg/injection, schedule: Q01DX009 (ip), vehicle: Klucel (hydroxypropylcellulose) (HPC) 100 % of control | [1] 99 % of control | endpoint: mean survival time, dose: 200.0 mg/kg/injection, schedule: Q01DX009 (ip), vehicle: Klucel (hydroxypropylcellulose) (HPC) 100 % of control | [2] 96 % of control | endpoint: mean survival time, dose: 400.0 mg/kg/injection, schedule: Q01DX009 (ip), vehicle: Klucel (hydroxypropylcellulose) (HPC) 103 % of control | [3] 96 % of control

Cc1c(CCNC=O)cc(C)c2c3c(oc12)CCCC3
inactive: endpoint: mean survival time, dose: 50.0 mg/kg/injection, schedule: Q01DX001 (ip), vehicle: saline 101 % of control | [4] 104 % of control | [5] 104 % of control

COC(=O)NCCc1cc(OC)c(OC)cc1Br
inactive: endpoint: mean survival time, dose: 100.0 mg/kg/injection, schedule: Q04DX003 (ip), vehicle: saline with Tween-80 86 % of control | endpoint: mean survival time, dose: 200.0 mg/kg/injection, schedule: Q04DX003 (ip), vehicle: saline with Tween-80 91 % of control | endpoint: mean survival time, dose: 400.0 mg/kg/injection, schedule: Q04DX003 (ip), vehicle: saline with Tween-80 91 % of control

CNCC(=O)NC(CO)C(=O)NC1C(C(N)=O)OC(n2ccc(N)nc2=O)C(O)C1O (centres undefined)
inactive: endpoint: median survival time, dose: 0.75 mg/kg/injection, schedule: Q04DX003 (ip), vehicle: saline 96 % of control | endpoint: median survival time, dose: 1.5 mg/kg/injection, schedule: Q04DX003 (ip), vehicle: saline 101 % of control | endpoint: median survival time, dose: 3.0 mg/kg/injection, schedule: Q04DX003 (ip), vehicle: saline 94 % of control

COC(=O)CC12CCCC(C)(CC(=O)N1)C2 (centres undefined)
inactive: endpoint: mean survival time, dose: 100.0 mg/kg/injection, schedule: Q01DX001 (ip), vehicle: carboxymethylcellulose (CMC) 93 % of control | endpoint: mean survival time, dose: 200.0 mg/kg/injection, schedule: Q01DX001 (ip), vehicle: carboxymethylcellulose (CMC) 96 % of control | endpoint: mean survival time, dose: 400.0 mg/kg/injection, schedule: Q01DX001 (ip), vehicle: carboxymethylcellulose (CMC) 98 % of control
